PubChem BioAssay (NCI)
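Cultured in 96-well plates, cells were exposed to test compound for 48 hours across five concentrations. TGI marks complete inhibition of growth.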

Columns and labels:
Test in all cases: growth of human tumour cells (NCI), 48 h
[1] = test system: HCT-15 colon
[2] = test system: SF-539 CNS
[3] = test system: SK-OV-3 ovarian
[4] = test system: SK-MEL-5 melanoma
[5] = test system: SR leukemia
[6] = test system: UACC-62 melanoma
[7] = test system: SF-268 CNS
[8] = test system: SK-MEL-2 melanoma
[9] = test system: HCC-2998 colon
[10] = test system: HCT-116 colon
[11] = test system: K-562 leukemia
[12] = test system: OVCAR-4 ovarian
[13] = test system: KM20L2 colon
[14] = test system: NCI-H460 lung
[15] = test system: IGROV1 ovarian
[16] = test system: SF-295 CNS
[17] = test system: NCI-H226 lung
[18] = test system: NCI-H23 lung
[19] = test system: MALME-3M melanoma
[20] = test system: OVCAR-3 ovarian

SMILES	TGI [1] [µM]	TGI [2] [µM]	TGI [3] [µM]	TGI [4] [µM]	TGI [5] [µM]	TGI [6] [µM]	TGI [7] [µM]	TGI [8] [µM]	TGI [9] [µM]	TGI [10] [µM]	TGI [11] [µM]	TGI [12] [µM]	TGI [13] [µM]	TGI [14] [µM]	TGI [15] [µM]	TGI [16] [µM]	TGI [17] [µM]	TGI [18] [µM]	TGI [19] [µM]	TGI [20] [µM]
COC(=O)C(=O)C(C(C)=O)C(=O)C(=O)Nc1ccc(C)cc1C (stereo not given)	> 100	> 100	> 100	> 100	> 100	> 100	> 100	> 100	> 100	> 100	> 100	> 100	> 100	> 100	> 100	> 100	> 100	> 100		
COc1ccc(N[C@@H]2c3cc4c(cc3C(c3cc(OC)c(O)c(OC)c3)[C@H]3C(=O)OCC32)OCO4)cc1OC (stereo not given in full)	> 100		> 52.1	> 31.7		> 39.2	> 56.7	> 30.4		> 42.7	> 100	> 100	> 100		> 75.7			1.92	> 40.7	> 28.4
CCCCCC(/C=C/c1ncccc1OCCCCCC(=O)O)=N\NC1=NCCN1	> 100	> 100	> 100		> 100	> 100	> 100	> 100	> 100	> 100	> 100	> 100	> 100	> 100	> 100	> 100	> 100		> 100	> 100
N#CCCN(CCC#N)c1ccc(/C=C(/NC(=O)Nc2ccccc2Cl)NC(=O)c2cc([N+](=O)[O-])ccc2Cl)cc1	> 100	> 100	> 100	> 100	> 100	> 100	> 100	> 100	> 100	> 100	> 100	> 100	> 100		> 100	> 100	> 100		> 100	> 100
O=S(=O)(CF)OCCCCOS(=O)(=O)CF	> 100	> 100	> 100	> 100		> 100	> 100	> 100		> 100	> 100		> 100	> 100	> 100	> 100	> 100	> 100	> 100	> 100
Cn1c(=O)[nH]c2c(c1=O)C(=O)CN2	> 100	> 100	> 100	> 100	> 100		> 100	> 100	> 100	> 100	> 100	> 100	> 100	> 100	> 100	> 100	> 100		> 100	
C[Si](C)(C)/C=C/CN1C(=O)CCC1=O	> 100	> 100	> 100	> 100	> 100	> 100	> 100	> 100	> 100	> 100	> 100		> 100	> 100	> 100			> 100	> 100	> 100
O=C(NCCN(CCNC(=O)c1cccc(=O)n1O)CCNC(=O)c1cccc(=O)n1O)c1cccc(=O)n1O	> 100	> 100	> 100	> 100	> 100	> 100	> 100	> 100	> 100		> 100	> 100		> 100	> 100	> 100	> 100	> 100	> 100	> 100
CN(C(=O)c1ccccc1)c1ccc2c(c1)C(=O)c1ccccc1C2=O	> 100		> 100		> 100	> 100	> 100	> 100	> 100	> 100	> 100	> 100	> 100	> 100	> 100	> 100	> 100	> 100	> 100	> 100
